# Laboratory results: patent publication US10022360B2, “Polymeric nanoparticles and methods of making and using same” (priority 2014, dated 2018)
# Key:
# in vivo = conditions: mouse
# Description: NPs from Example 4 were prepared on a larger scale for MTD studies.
# [1] = Blood glucose after acute treatment, non-tumor bearing SCID mice; format: in vivo; conditions: FIG. 10
# [2] = format: in vivo; conditions: BT-474 xenografts in SCID mice, FIG. 15
structure (smiles),measurement,setting,value
"NC1(c2ccc(-c3nc4ccn5c(=O)[nH]nc5c4cc3-c3ccccc3)cc2)CCC1 [COMPOUND A, 8-[4-(1-amino-cyclobutyl)phenyl]-9-phenyl-2H-[1,2,4]-triazolo-[3,4-f][1,6]-naphthyridin-3-one]",MTD,in vivo,480 mg/kg
same,hyperglycemia following acute treatment,[1],display hyperglycemia
same,MTD dosing / toxicity (percent survival),[2],exhibited toxicity
